The assay has as its target T1, HSA (Homo sapiens, UniProt P02768).
T1 construct: purchased Sigma A 3782
Description: two-sample (dual) gradient pulse injection SPR assay, site availability of drugs binding to HSA. The conditions noted are these: digitoxin and warfarin, 50 µM each, added individual responses vs mixture, 25 °C. (SPR reads the build-up and loss of mass on a sensor chip optically.)

T1 sequence (P02768 25-609): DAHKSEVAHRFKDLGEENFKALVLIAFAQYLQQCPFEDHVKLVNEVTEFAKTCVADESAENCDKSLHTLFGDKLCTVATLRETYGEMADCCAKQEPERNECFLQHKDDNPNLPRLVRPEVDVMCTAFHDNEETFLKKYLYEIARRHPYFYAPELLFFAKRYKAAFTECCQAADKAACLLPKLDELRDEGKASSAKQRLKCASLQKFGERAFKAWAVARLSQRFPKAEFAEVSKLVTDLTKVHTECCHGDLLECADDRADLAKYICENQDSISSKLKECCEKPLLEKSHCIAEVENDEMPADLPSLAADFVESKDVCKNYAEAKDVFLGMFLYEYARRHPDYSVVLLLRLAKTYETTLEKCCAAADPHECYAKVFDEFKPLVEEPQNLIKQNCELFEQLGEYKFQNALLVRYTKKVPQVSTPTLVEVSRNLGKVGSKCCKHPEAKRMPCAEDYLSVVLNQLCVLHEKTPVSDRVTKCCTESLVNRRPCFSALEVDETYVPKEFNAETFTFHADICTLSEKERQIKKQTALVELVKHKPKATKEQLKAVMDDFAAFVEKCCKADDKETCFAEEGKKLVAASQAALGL

`C[C@H]1O[C@@H](O[C@H]2[C@@H](O)C[C@H](O[C@H]3[C@@H](O)C[C@H](O[C@H]4CC[C@@]5(C)[C@H](CC[C@@H]6[C@@H]5CC[C@]5(C)[C@@H](C7=CC(=O)OC7)CC[C@]65O)C4)O[C@@H]3C)O[C@@H]2C)C[C@H](O)[C@@H]1O` [Digitoxin, digitoxin]: the “binding site relation on HSA” value is listed as “non-competitive binders”.

Source of the values: patent publication EP1631829B1, “METHOD AND APPARATUS FOR CHARACTERIZATION OF INTERACTIONS” (GE Healthcare Bio-Sciences AB, priority 2003, dated 2004).
